According to patent publication US6525001B1, “Substituted pyrimidine and pyridine herbicides” (Mid-American Commercialization Corporation, priority 1997, dated 2003):

How the values were obtained:
Assay type in all cases: in vivo
[1] = test system: bermudagrass (Cynodon dactylon); assay: Test E pre-/postemergence/post directed; set-up: key: 0 is no effect; 100 is complete control; details: PREEMERGENCE
Method in brief: (§1)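 Greenhouse pots; compound in non-phytotoxic solvent with surfactant, sprayed preemergence within one day of planting, postemergence at two to four leaf stage (three to twenty cm), or post directed to plant base and soil. Visual injury rated 13 to 21 days after application, 0 (none) to 100 (complete control).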

[2] = test system: common groundsel (Senecio vulgaris); assay: Test E pre-/postemergence/post directed; set-up: key: 0 is no effect; 100 is complete control; details: PREEMERGENCE
Method in brief: as §1

[3] = test system: common purslane (Portulaca oleracea); assay: Test E pre-/postemergence/post directed; set-up: key: 0 is no effect; 100 is complete control
Method in brief: as §1

[4] = test system: common ragweed (Ambrosia elatior); assay: Test E pre-/postemergence/post directed; set-up: key: 0 is no effect; 100 is complete control; details: PREEMERGENCE
Method in brief: as §1

[5] = test system: dallisgrass (Paspalum dilatatum); assay: Test E pre-/postemergence/post directed; set-up: key: 0 is no effect; 100 is complete control
Method in brief: as §1

[6] = test system: goosegrass (Eleusine indica); assay: Test E pre-/postemergence/post directed; set-up: key: 0 is no effect; 100 is complete control
Method in brief: as §1

[7] = test system: guineagrass (Panicum maximum); assay: Test E pre-/postemergence/post directed; set-up: key: 0 is no effect; 100 is complete control
Method in brief: as §1

[8] = test system: large crabgrass (Digitaria sanguinalis); assay: Test E pre-/postemergence/post directed; set-up: key: 0 is no effect; 100 is complete control; details: PREEMERGENCE
Method in brief: as §1

[9] = test system: sourgrass (Trichachne insularis); assay: Test E pre-/postemergence/post directed; set-up: key: 0 is no effect; 100 is complete control
Method in brief: as §1

[10] = test system: surinam grass (Brachiaria decumbens); assay: Test E pre-/postemergence/post directed; set-up: key: 0 is no effect; 100 is complete control; details: PREEMERGENCE, Rate 250 g/ha
Method in brief: as §1

[11] = test system: tall mallow (Malva sylvestris); assay: Test E pre-/postemergence/post directed; set-up: key: 0 is no effect; 100 is complete control; details: PREEMERGENCE
Method in brief: as §1

[12] = test system: barnyardgrass (Echinochloa crus-galli); assay: Test C; set-up: key: 0 was no effect; 100 was complete control; details: PREEMERGENCE
corn (Zea mays) = assay: Test C; details: PREEMERGENCE
[13] = test system: fall panicum (Panicum dichotomiflorum); assay: Test C; details: PREEMERGENCE
[14] = test system: hairy beggarticks (Bidens pilosa); assay: Test C; set-up: key: 0 was no effect; 100 was complete control; details: PREEMERGENCE
[15] = test system: johnsongrass (Sorghum halepense); assay: Test C; set-up: key: 0 was no effect; 100 was complete control; details: PREEMERGENCE
[16] = test system: redroot pigweed (Amaranthus retroflexus); assay: Test C; set-up: key: 0 was no effect; 100 was complete control; details: PREEMERGENCE
soybean (Glycine max) = assay: Test C; set-up: key: 0 was no effect; 100 was complete control; details: PREEMERGENCE
[17] = test system: surinam grass (Brachiaria decumbens); assay: Test C; details: PREEMERGENCE

Cc1cnc(-n2cnc(C(F)(F)F)n2)nc1C(=O)c1cccc(C(F)(F)F)c1 [Compound 67]
Plant response rating, Bermudagrass ([1]; Rate 250 g/ha): 100 | Plant response rating, Com. groundsel ([2]; Rate 250 g/ha): 100 | Plant response rating, Com. purslane ([3]; PREEMERGENCE, Rate 32 g/ha): 80 | Plant response rating, Com. purslane ([3]; PREEMERGENCE, Rate 64 g/ha): 100 | Plant response rating, Com. purslane ([3]; PREEMERGENCE, Rate 125 g/ha): 100 | Plant response rating, Com. purslane ([3]; PREEMERGENCE, Rate 250 g/ha): 100 | Plant response rating, Com. ragweed ([4]; Rate 125 g/ha): 100 | Plant response rating, Com. ragweed ([4]; Rate 250 g/ha): 100 | Plant response rating, Dallisgrass ([5]; PREEMERGENCE, Rate 32 g/ha): 40 | Plant response rating, Dallisgrass ([5]; PREEMERGENCE, Rate 64 g/ha): 70 | Plant response rating, Dallisgrass ([5]; PREEMERGENCE, Rate 125 g/ha): 80 | Plant response rating, Dallisgrass ([5]; PREEMERGENCE, Rate 250 g/ha): 100 | Plant response rating, Goosegrass ([6]; PREEMERGENCE, Rate 32 g/ha): 80 | Plant response rating, Goosegrass ([6]; PREEMERGENCE, Rate 64 g/ha): 90 | Plant response rating, Goosegrass ([6]; PREEMERGENCE, Rate 125 g/ha): 100 | Plant response rating, Goosegrass ([6]; PREEMERGENCE, Rate 250 g/ha): 100 | Plant response rating, Guineagrass ([7]; PREEMERGENCE, Rate 32 g/ha): 80 | Plant response rating, Guineagrass ([7]; PREEMERGENCE, Rate 64 g/ha): 100 | Plant response rating, Guineagrass ([7]; PREEMERGENCE, Rate 125 g/ha): 100 | Plant response rating, Guineagrass ([7]; PREEMERGENCE, Rate 250 g/ha): 100 | Plant response rating, Large crabgrass ([8]; Rate 250 g/ha): 100 | Plant response rating, Sourgrass ([9]; PREEMERGENCE, Rate 32 g/ha): 98 | Plant response rating, Sourgrass ([9]; PREEMERGENCE, Rate 64 g/ha): 100 | Plant response rating, Sourgrass ([9]; PREEMERGENCE, Rate 125 g/ha): 100 | Plant response rating, Sourgrass ([9]; PREEMERGENCE, Rate 250 g/ha): 100 | Plant response rating, Surinam grass [10]: 100 | Plant response rating, Tall Mallow ([11]; Rate 32 g/ha): 80 | Plant response rating, Tall Mallow ([11]; Rate 64 g/ha): 90 | Plant response rating, Tall Mallow ([11]; Rate 125 g/ha): 90 | Plant response rating, Tall Mallow ([11]; Rate 250 g/ha): 98

Cc1cnc(-c2ccc(C(F)(F)F)cc2)nc1Cc1cccc(C(F)(F)F)c1 [Example 1, 5-methyl-2-[4-(trifluoromethyl)phenyl]-4-[[3-(trifluoromethyl)phenyl]methyl]pyrimidine]
Plant response rating, Barnyardgrass ([12]; Rate 35 g/ha): 20 | Plant response rating, Barnyardgrass ([12]; Rate 70 g/ha): 75 | Plant response rating, Barnyardgrass ([12]; Rate 140 g/ha): 100 | Plant response rating, Corn (corn (Zea mays); Rate 35 g/ha): 5 | Plant response rating, Corn (corn (Zea mays); Rate 70 g/ha): 10 | Plant response rating, Corn (corn (Zea mays); Rate 140 g/ha): 10 | Plant response rating, Fall panicum ([13]; Rate 35 g/ha): 90 | Plant response rating, Fall panicum ([13]; Rate 70 g/ha): 90 | Plant response rating, Fall panicum ([13]; Rate 140 g/ha): 95 | Plant response rating, H. beggarticks ([14]; Rate 35 g/ha): 20 | Plant response rating, H. beggarticks ([14]; Rate 70 g/ha): 100 | Plant response rating, H. beggarticks ([14]; Rate 140 g/ha): 100 | Plant response rating, Johnsongrass ([15]; Rate 35 g/ha): 50 | Plant response rating, Johnsongrass ([15]; Rate 70 g/ha): 95 | Plant response rating, Johnsongrass ([15]; Rate 140 g/ha): 100 | Plant response rating, Redroot pigweed ([16]; Rate 35 g/ha): 100 | Plant response rating, Redroot pigweed ([16]; Rate 70 g/ha): 100 | Plant response rating, Redroot pigweed ([16]; Rate 140 g/ha): 100 | Plant response rating, Soybean (soybean (Glycine max); Rate 35 g/ha): 0 | Plant response rating, Soybean (soybean (Glycine max); Rate 70 g/ha): 0 | Plant response rating, Soybean (soybean (Glycine max); Rate 140 g/ha): 0 | Plant response rating, Surinam grass ([17]; Rate 35 g/ha): 50 | Plant response rating, Surinam grass ([17]; Rate 70 g/ha): 90 | Plant response rating, Surinam grass ([17]; Rate 140 g/ha): 95 | Plant response rating, Bermudagrass ([1]; Rate 32 g/ha): 100 | Plant response rating, Bermudagrass ([1]; Rate 64 g/ha): 100 | Plant response rating, Bermudagrass ([1]; Rate 125 g/ha): 100 | Plant response rating, Bermudagrass ([1]; Rate 250 g/ha): 100 | Plant response rating, Com. groundsel ([2]; Rate 64 g/ha): 100 | Plant response rating, Com. groundsel ([2]; Rate 125 g/ha): 100 | Plant response rating, Com. groundsel ([2]; Rate 250 g/ha): 100 | Plant response rating, Com. purslane ([3]; POSTEMERGENCE, Rate 250 g/ha): 40 | Plant response rating, Com. purslane ([3]; PREEMERGENCE, Rate 32 g/ha): 98 | Plant response rating, Com. purslane ([3]; PREEMERGENCE, Rate 64 g/ha): 100 | Plant response rating, Com. purslane ([3]; PREEMERGENCE, Rate 125 g/ha): 100 | Plant response rating, Com. purslane ([3]; PREEMERGENCE, Rate 250 g/ha): 100 | Plant response rating, Com. ragweed ([4]; Rate 64 g/ha): 100 | Plant response rating, Com. ragweed ([4]; Rate 125 g/ha): 100 | Plant response rating, Com. ragweed ([4]; Rate 250 g/ha): 100 | Plant response rating, Dallisgrass ([5]; POSTEMERGENCE, Rate 250 g/ha): 90 | Plant response rating, Dallisgrass ([5]; PREEMERGENCE, Rate 32 g/ha): 98 | Plant response rating, Dallisgrass ([5]; PREEMERGENCE, Rate 64 g/ha): 100 | Plant response rating, Dallisgrass ([5]; PREEMERGENCE, Rate 125 g/ha): 100 | Plant response rating, Dallisgrass ([5]; PREEMERGENCE, Rate 250 g/ha): 100 | Plant response rating, Goosegrass ([6]; POSTEMERGENCE, Rate 250 g/ha): 70 | Plant response rating, Goosegrass ([6]; PREEMERGENCE, Rate 32 g/ha): 100 | Plant response rating, Goosegrass ([6]; PREEMERGENCE, Rate 64 g/ha): 100 | Plant response rating, Goosegrass ([6]; PREEMERGENCE, Rate 125 g/ha): 100 | Plant response rating, Goosegrass ([6]; PREEMERGENCE, Rate 250 g/ha): 100 | Plant response rating, Guineagrass ([7]; POSTEMERGENCE, Rate 250 g/ha): 70 | Plant response rating, Guineagrass ([7]; PREEMERGENCE, Rate 32 g/ha): 90 | Plant response rating, Guineagrass ([7]; PREEMERGENCE, Rate 64 g/ha): 100 | Plant response rating, Guineagrass ([7]; PREEMERGENCE, Rate 125 g/ha): 100 | Plant response rating, Guineagrass ([7]; PREEMERGENCE, Rate 250 g/ha): 100 | Plant response rating, Large crabgrass ([8]; Rate 32 g/ha): 100 | Plant response rating, Large crabgrass ([8]; Rate 64 g/ha): 100 | Plant response rating, Large crabgrass ([8]; Rate 125 g/ha): 100 | Plant response rating, Large crabgrass ([8]; Rate 250 g/ha): 100 | Plant response rating, Sourgrass ([9]; POSTEMERGENCE, Rate 250 g/ha): 30 | Plant response rating, Sourgrass ([9]; PREEMERGENCE, Rate 32 g/ha): 100 | Plant response rating, Sourgrass ([9]; PREEMERGENCE, Rate 64 g/ha): 100 | Plant response rating, Sourgrass ([9]; PREEMERGENCE, Rate 125 g/ha): 100 | Plant response rating, Sourgrass ([9]; PREEMERGENCE, Rate 250 g/ha): 100 | Plant response rating, Surinam grass [10]: 100 | Plant response rating, Tall Mallow ([11]; Rate 32 g/ha): 100 | Plant response rating, Tall Mallow ([11]; Rate 64 g/ha): 100 | Plant response rating, Tall Mallow ([11]; Rate 125 g/ha): 100 | Plant response rating, Tall Mallow ([11]; Rate 250 g/ha): 100
